In US20250082585A1, “METHOD FOR STORING REDUCED COENZYME Q10” (KANEKA CORPORATION, priority 2021, published 2025):

Assay: Evaluation of oxidation stability (QH residual rate after storage, QH ratio by HPLC)
Assay type: physicochemical
Method: The weight ratio of reduced coenzyme Q10 to total coenzyme Q10 (namely, reduced coenzyme Q10/(oxidized coenzyme Q10+reduced coenzyme Q10)) is defined as “QH ratio”. The QH ratio was determined by the following HPLC analysis. For the evaluation of oxidation stability, a rate of the change in the QH ratio at the end of the evaluation from that at the beginning of the evaluation was defined as “QH residual rate”, and the QH residual rate determined by the following expression was used as a measure of oxidation stability.
QH residual rate (%)=100×QH ratio at the end of the evaluation/QH ratio at the beginning of the evaluation […]
In a glass vial (volume 33 ml), 0.1 g of the QH Form I crystal was placed. […] The glass vial was sealed, and stored under a temperature of 40° C. and a relative humidity of 75% for 2 weeks, after which the QH residual rate was determined.
In a glass vial, 0.2 g of the QH Form I crystal was placed. The glass vial was opened, and stored under a temperature of 40° C. and a relative humidity of 11% for 2 weeks, after which the QH residual rate was determined.
In a glass vial (volume 33 ml), 0.1 g of the QH Form I crystal was placed. […] The glass vial was sealed, and stored under a temperature of 25° C. and a relative humidity of 60% for 4 weeks, after which the QH residual rate was determined. […]

## COc1c(O)c(C)c(C/C=C(\C)CC/C=C(\C)CC/C=C(\C)CC/C=C(\C)CC/C=C(\C)CC/C=C(\C)CC/C=C(\C)CC/C=C(\C)CC/C=C(\C)CCC=C(C)C)c(O)c1OC [Comparative Example 1, reduced coenzyme Q10]
0.2 g QH Form I crystal without water, opened glass vial, 40° C., relative humidity 11%, 2 weeks
  QH residual rate: 34.9%

## COc1c(O)c(C)c(C/C=C(\C)CC/C=C(\C)CC/C=C(\C)CC/C=C(\C)CC/C=C(\C)CC/C=C(\C)CC/C=C(\C)CC/C=C(\C)CC/C=C(\C)CCC=C(C)C)c(O)c1OC [Comparative Example 2, reduced coenzyme Q10]
0.1 g QH Form I crystal, with aqueous solution of Table 3 or without (comparative), sealed glass vial, 25° C., relative humidity 60%, 4 weeks
  QH residual rate: 33.3%
